{
  "source": "patent US20190382396A1",
  "about": "“SALTS OF BICYCLO[1.1.1]PENTANE INHIBITORS OF DUAL LEUCINE ZIPPER (DLK) KINASE FOR THE TREATMENT OF DISEASE” (Board of Regents, The University of Texas System, priority 2018, published 2019)",
  "format_in_all_cases": "physicochemical",
  "key": {"[1]": {"experiment": "Solubility of the Example 1 compound in organic solvents", "conditions": "thermodynamic from solid; for solubility at 2 h: 25 °C, RT; for solubility: 50° C.", "description": "Solubility of the Example 1 compound in various organic solvents was determined by the following procedure. […] The mixture was stirred at 800 rpm at 25° C. for 2 hr. If the compound was not dissolved completely by this time, the temperature was then raised to 50° C. and stirring at 800 rpm was continued overnight. If a solid precipitate was present, the solid precipitate was then removed by centrifugation (14,000 RPM, 5 min) and dried under vacuum at 30° C. (Method I). If a solid precipitate was not present, the solvent was removed by evaporation under vacuum at 30° C. (Method II). In either case, the resulting material was evaluated by XRPD."}, "[2]": {"experiment": "Dynamic vapor sorption (DVS), hygroscopicity", "quoted_text": "Dynamic vapor sorption (“DVS”) was performed at 25° C., using approx 10-15 mg of sample and N2 gas at a flow rate of 200 mL/min, dm/dt=0.01% min, minimum dm/dt stability duration of 10 min, max equilibration time of 180 min, drying at 0% RH for 120 min, scanning from 0% RH to 90% RH to 0% RH with a step size of 10% RH.\nTotal cycling time varied, but in all cases was about 200-250 min."}, "[3]": {"experiment": "Solubility in physiologically relevant solutions (SGF, FaSSIF, FeSSIF)", "conditions": "25±0.5° C.; for solubility at 24 h: 25 °C, thermodynamic from solid", "description": "Solubility of the free base 1 and the selected salts 8, 9, 10, and 11 in physiologically relevant solutions were examined. For each material, aliquots were added to 2 ml vials containing 500 uL of either SGF, FaSSIF, or FeSSIF, which were then sealed. The mixtures were kept shaking by thermomixer at 700 rpm, 25±0.5° C. for 24 h to facilitate the dissolution and then centrifuged by 96-well plates at 3000 rpm for 2 min. The filter liquors were diluted with diluents (ACN/water, 50/50) and analyzed by HPLC."}, "[4]": {"experiment": "Stability (50° C., 40° C./75% RH, light; 1 week)", "conditions": "for XRPD change? / purity: bulk, 1 week", "description": "The stability of the free base 1 and the selected salts 8, 9, 10, and 11 was evaluated. For each material, aliquots were set up at each of conditions (50° C., 40° C./75% RH, light) at given time points (initial and 1 week). PXRD diffractograms of the hydrogen fumarate salt 11 is shown in FIG. 17, with trace (a) showing the initial salt, trace (b) showing the salt after light treatment, trace (c) showing the salt after storage at 40° C. and 75% relative humidity for 1 week, and (d) showing the salt after storage at 50° C. for 1 week."}, "[5]": {"experiment": "Thermogravimetric analysis / DSC weight loss", "conditions": "<120° C.", "description": "Differential scanning calorimetry (“DSC”) was performed with a TA Q2000 instrument, using approx 1 mg of sample in a crimped Al pan, heating from room temperature to 300° C. at a rate of 10° C./min.\nThermogravimetric analysis (“TGA”) was performed with a TA Q5000 instrument, using approx 2-5 mg of sample in an open Pt pan, heating from room temperature to 300° C. at a rate of 10° C./min."}, "[6]": {"conditions": "aqueous with cosolvent or surfactant or cyclodextrin, 1/1 (v/v) Acetone/H2O"}, "[7]": {"conditions": "aqueous with cosolvent or surfactant or cyclodextrin, 1/1 (v/v) EtOH/H2O"}, "[8]": {"conditions": "organic solvent or mixture, ACN"}, "[9]": {"conditions": "organic solvent or mixture, EtOH"}, "[10]": {"conditions": "organic solvent or mixture, Heptane"}, "[11]": {"conditions": "organic solvent or mixture, MTBE"}, "[12]": {"conditions": "organic solvent or mixture, Toluene"}},
  "note": "Where two headings read alike, the source gives them in different places.",
  "data": [
    {"smiles": "CC(C)c1nc(-c2cnc(N)c(OC(F)(F)F)c2)cn1C12CC(N3CCOCC3)(C1)C2", "note": "[Example 1, 5-(2-isopropyl-1-(3-morpholinobicyclo[1.1.1]pentan-1-yl)-1H-imidazol-4-yl)-3-(trifluoromethoxy)pyridin-2-amine]", "values": [
      {"measurement": "solubility at 2 h", "setting": "[1]; [6]", "result": "< 50", "unit": "mg/mL"},
      {"measurement": "solubility at 2 h", "setting": "[1]; [7]", "result": "< 50", "unit": "mg/mL"},
      {"measurement": "solubility at 2 h", "setting": "[1]; [8]", "result": "< 50", "unit": "mg/mL"},
      {"measurement": "solubility at 2 h", "setting": "[1]; organic solvent or mixture, Acetone", "result": "> 50", "unit": "mg/mL"},
      {"measurement": "solubility at 2 h", "setting": "[1]; organic solvent or mixture, DCM", "result": "> 50", "unit": "mg/mL"},
      {"measurement": "solubility at 2 h", "setting": "[1]; organic solvent or mixture, DMF", "result": "> 50", "unit": "mg/mL"},
      {"measurement": "solubility at 2 h", "setting": "[1]; organic solvent or mixture, DMSO", "result": "> 50", "unit": "mg/mL"},
      {"measurement": "solubility at 2 h", "setting": "[1]; organic solvent or mixture, Dioxane", "result": "> 50", "unit": "mg/mL"},
      {"measurement": "solubility at 2 h", "setting": "[1]; organic solvent or mixture, EtOAc", "result": "> 50", "unit": "mg/mL"},
      {"measurement": "solubility at 2 h", "setting": "[1]; [9]", "result": "< 50", "unit": "mg/mL"},
      {"measurement": "solubility at 2 h", "setting": "[1]; [10]", "result": "< 50", "unit": "mg/mL"},
      {"measurement": "solubility at 2 h", "setting": "[1]; organic solvent or mixture, IPA", "result": "> 50", "unit": "mg/mL"},
      {"measurement": "solubility at 2 h", "setting": "[1]; organic solvent or mixture, MEK", "result": "> 50", "unit": "mg/mL"},
      {"measurement": "solubility at 2 h", "setting": "[1]; [11]", "result": "< 50", "unit": "mg/mL"},
      {"measurement": "solubility at 2 h", "setting": "[1]; organic solvent or mixture, MeOH", "result": "> 50", "unit": "mg/mL"},
      {"measurement": "solubility at 2 h", "setting": "[1]; organic solvent or mixture, THF", "result": "> 50", "unit": "mg/mL"},
      {"measurement": "solubility at 2 h", "setting": "[1]; [12]", "result": "< 50", "unit": "mg/mL"},
      {"measurement": "solubility", "setting": "[1]; [6]", "result": "< 50", "unit": "mg/mL"},
      {"measurement": "solubility", "setting": "[1]; [7]", "result": "< 50", "unit": "mg/mL"},
      {"measurement": "solubility", "setting": "[1]; [8]", "result": "> 50", "unit": "mg/mL"},
      {"measurement": "solubility", "setting": "[1]; [9]", "result": "> 50", "unit": "mg/mL"},
      {"measurement": "solubility", "setting": "[1]; [10]", "result": "< 50", "unit": "mg/mL"},
      {"measurement": "solubility", "setting": "[1]; [11]", "result": "< 50", "unit": "mg/mL"},
      {"measurement": "solubility", "setting": "[1]; [12]", "result": "< 50", "unit": "mg/mL"},
      {"measurement": "solubility at 2 h", "setting": "[1]; water, H2O", "result": "< 50", "unit": "mg/mL"},
      {"measurement": "solubility", "setting": "[1]; water, H2O", "result": "< 50", "unit": "mg/mL"},
      {"measurement": "Hygroscopicity (0-40% RH)", "setting": "[2]; DVS, 25° C., 0-40% RH", "result": 0.11, "unit": "%"},
      {"measurement": "Hygroscopicity (0-90% RH)", "setting": "[2]; DVS, 25° C., 0-90% RH", "result": 2.44, "unit": "%"},
      {"measurement": "Hygroscopicity; form change", "setting": "[2]; form change after DVS", "result": "no change"},
      {"measurement": "solubility at 24 h", "setting": "[3]; simulated gastric fluid, SGF, read-out: Solubility SGF Conc", "result": 4.56, "unit": "mg/mL"},
      {"measurement": "solubility at 24 h", "setting": "[3]; FaSSIF, read-out: Solubility FaSSIF Conc", "result": 0.0713, "unit": "mg/mL"},
      {"measurement": "solubility at 24 h", "setting": "[3]; FeSSIF, read-out: Solubility FeSSIF Conc", "result": 0.473, "unit": "mg/mL"},
      {"measurement": "FaSSIF pH after 24 h", "setting": "[3]; FaSSIF", "result": 6.48},
      {"measurement": "FeSSIF pH after 24 h", "setting": "[3]; FeSSIF", "result": 5.00},
      {"measurement": "SGF pH after 24 h", "setting": "[3]; SGF", "result": 3.83},
      {"measurement": "XRPD change?", "setting": "[4]; 40° C., 75% RH", "result": "yes"},
      {"measurement": "purity", "setting": "[4]; 40° C., 75% RH", "result": 99.66, "unit": "%"},
      {"measurement": "XRPD change?", "setting": "[4]; 50° C.", "result": "yes"},
      {"measurement": "purity", "setting": "[4]; 50° C.", "result": 99.41, "unit": "%"},
      {"measurement": "initial purity", "setting": "[4]; initial (before storage)", "result": 99.59, "unit": "%"},
      {"measurement": "XRPD change?", "setting": "[4]; light", "result": "yes (1)"},
      {"measurement": "purity", "setting": "[4]; light", "result": 96.61, "unit": "%"},
      {"measurement": "weight loss (TGA, %)", "setting": "[5]", "result": "0.29% (<120° C.)"}
    ]}
  ]
}
